Structures can show the parent of a compound that is named as a salt.
Target: T1, c-Met kinase (recombinant c-Met) (Homo sapiens, UniProt P08581)
T1 construct: 0.27 nM recombinant c-Met
Experiment: In vitro kinase assay I (homogeneous time-resolved fluorescence tyrosine kinase assay)
Type: biochemical
Procedure, shortened: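 Biotinylated peptide (0.5 μM) phosphorylated by 0.2 nM recombinant c-Met with 50 μM MgATP, 60 min at room temperature, pH 7.4, 5% DMSO. EDTA stop; HTRF read with Eu-anti-phosphotyrosine antibody and streptavidin-APC. IC50 from 4-parameter logistic fit.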

T1 sequence (P08581 25-1390): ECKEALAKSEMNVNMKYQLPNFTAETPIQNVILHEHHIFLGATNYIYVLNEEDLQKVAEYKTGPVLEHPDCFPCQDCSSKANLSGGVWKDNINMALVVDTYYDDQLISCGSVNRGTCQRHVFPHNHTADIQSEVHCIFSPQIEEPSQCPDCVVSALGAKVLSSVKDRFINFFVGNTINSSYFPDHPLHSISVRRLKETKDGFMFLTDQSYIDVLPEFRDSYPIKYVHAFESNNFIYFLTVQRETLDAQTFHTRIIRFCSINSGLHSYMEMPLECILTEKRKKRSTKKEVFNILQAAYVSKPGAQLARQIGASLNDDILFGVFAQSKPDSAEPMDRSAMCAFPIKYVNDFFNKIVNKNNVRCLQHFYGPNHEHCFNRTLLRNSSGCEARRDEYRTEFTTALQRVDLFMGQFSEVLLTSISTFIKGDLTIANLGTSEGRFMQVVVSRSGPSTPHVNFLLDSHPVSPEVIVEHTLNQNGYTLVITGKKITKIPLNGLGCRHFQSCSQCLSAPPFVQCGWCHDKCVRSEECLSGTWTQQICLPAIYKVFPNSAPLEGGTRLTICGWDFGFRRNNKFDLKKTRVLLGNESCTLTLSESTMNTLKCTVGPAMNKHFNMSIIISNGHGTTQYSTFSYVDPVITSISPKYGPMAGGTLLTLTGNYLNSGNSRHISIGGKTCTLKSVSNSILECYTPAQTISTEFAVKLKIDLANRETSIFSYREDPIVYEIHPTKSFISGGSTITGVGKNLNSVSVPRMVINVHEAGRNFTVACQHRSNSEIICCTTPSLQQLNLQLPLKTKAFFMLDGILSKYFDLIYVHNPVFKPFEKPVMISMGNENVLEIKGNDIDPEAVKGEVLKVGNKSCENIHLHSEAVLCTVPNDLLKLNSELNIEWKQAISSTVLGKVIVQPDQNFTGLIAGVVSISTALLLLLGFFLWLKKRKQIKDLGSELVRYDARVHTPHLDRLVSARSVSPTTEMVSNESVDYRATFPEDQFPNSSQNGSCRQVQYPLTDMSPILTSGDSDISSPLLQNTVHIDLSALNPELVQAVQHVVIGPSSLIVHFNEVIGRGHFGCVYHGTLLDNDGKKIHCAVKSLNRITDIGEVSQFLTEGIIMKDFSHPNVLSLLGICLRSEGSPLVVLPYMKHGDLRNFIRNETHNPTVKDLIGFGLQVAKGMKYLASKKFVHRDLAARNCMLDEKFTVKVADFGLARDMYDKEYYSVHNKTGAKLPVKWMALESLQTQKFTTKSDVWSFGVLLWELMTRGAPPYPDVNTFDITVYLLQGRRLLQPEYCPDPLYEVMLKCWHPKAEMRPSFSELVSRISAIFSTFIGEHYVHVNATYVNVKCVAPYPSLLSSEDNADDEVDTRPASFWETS

`Cn1cc(-n2ccc(=O)c(Cc3cccc(NC(=O)OCCN4CCC(F)(F)C4)c3)n2)cn1` [Example 524, 2-(3,3-difluoropyrrolidin-1-yl)ethyl (3-{[1-(1-methyl-1H-pyrazol-4-yl)-4-oxo-1,4-dihydropyridazin-3-yl]methyl}phenyl)carbamate] and `Cn1cc(-n2ccc(=O)c(Cc3cccc(NC(=O)OCCC(F)(F)F)c3)n2)cn1` [Example 564, 3,3,3-trifluoropropyl (3-{[1-(1-methyl-1H-pyrazol-4-yl)-4-oxo-1,4-dihydropyridazin-3-yl]methyl}phenyl)carbamate] cannot be ordered by IC50: under 100 nM for the first, under 100 nM for the second.

First: CC(c1cccc(-c2ncc(OC(F)F)cn2)c1)c1nn(-c2cnn(C)c2)ccc1=O (single isomer, unassigned) [Example 209, 3-[(1S or R)-1-{3-[5-(difluoromethoxy)pyrimidin-2-yl]phenyl}ethyl]-1-(1-methyl-1H-pyrazol-4-yl)pyridazin-4(1H)-one]
Second: CC(c1cccc(-c2ncc(-c3cnn(C)c3)cn2)c1)c1nn(-c2cnn(C)c2)ccc1=O (single isomer, unassigned) [Example 232, 1-(1-methyl-1H-pyrazol-4-yl)-3-[(1S or R)-1-{3-[5-(1-methyl-1H-pyrazol-4-yl)pyrimidin-2-yl]phenyl}ethyl]pyridazin-4(1H)-one]
The IC50 of the first is higher: 100 to 1000 nM for the first, under 100 nM for the second. The second is the more potent here.

`CCOC(=O)Nc1cccc(Cc2nn(-c3ccc(Br)cc3)ccc2=O)c1` [Example 18, ethyl (3-{[1-(4-bromophenyl)-4-oxo-1,4-dihydropyridazin-3-yl]methyl}phenyl)carbamate] and `COCCCOC(=O)Nc1cccc(Cc2nn(-c3cnn(C)c3)ccc2=O)c1` [Example 575, 3-methoxypropyl (3-{[1-(1-methyl-1H-pyrazol-4-yl)-4-oxo-1,4-dihydropyridazin-3-yl]methyl}phenyl)carbamate] cannot be ordered by IC50: under 100 nM for the first, under 100 nM for the second.

`CC(C)COC(=O)Nc1cccc(Cc2nn(-c3cnn(CC(=O)O)c3)ccc2=O)c1` [Example 181, {4-[3-(3-{[(2-methylpropoxy)carbonyl]amino}benzyl)-4-oxopyridazin-1(4H)-yl]-1H-pyrazol-1-yl}acetic acid] and `CC1CCC(=O)N1[C@@H](C)COC(=O)Nc1cccc(Cc2nn(-c3cnn(C)c3)ccc2=O)c1` (single isomer, unassigned) [Example 610, (2S)-2-[(2R or S)-2-methyl-5-oxopyrrolidin-1-yl]propyl (3-{[1-(1-methyl-1H-pyrazol-4-yl)-4-oxo-1,4-dihydropyridazin-3-yl]methyl}phenyl)carbamate] cannot be ordered by IC50: under 100 nM for the first, under 100 nM for the second.

`Cn1cc(-n2ccc(=O)c(Cc3cccc(-c4ncc(OCC5(F)COC5)cn4)c3)n2)cn1` [Example 272, 3-(3-{5-[(3-fluorooxetan-3-yl)methoxy]pyrimidin-2-yl}benzyl)-1-(1-methyl-1H-pyrazol-4-yl)pyridazin-4(1H)-one] and `Cc1cc(COc2cnc(-c3cccc(Cc4nn(-c5cnn(C)c5)ccc4=O)c3)nc2)on1` [Example 286, 3-(3-{5-[(3-methylisoxazol-5-yl)methoxy]pyrimidin-2-yl}benzyl)-1-(1-methyl-1H-pyrazol-4-yl)pyridazin-4(1H)-one] cannot be ordered by IC50: under 100 nM for the first, under 100 nM for the second.

Compared with `Cn1cc(-n2ccc(=O)c(Cc3cccc(-c4ncn(CCN5CCCC5=O)n4)c3)n2)cn1` [Example 718], `Cn1cc(-n2ccc(=O)c(Cc3cccc(-c4ncn(CCC5CCOC5)n4)c3)n2)cn1` (racemic) [Example 717, rac-1-(1-methyl-1H-pyrazol-4-yl)-3-(3-{1-[2-(tetrahydrofuran-3-yl)ethyl]-1H-1,2,4-triazol-3-yl}benzyl)pyridazin-4(1H)-one] is lower in IC50: 100 to 1000 nM for the first, under 100 nM for the second.

`Cn1cc(-n2ccc(=O)c(Cc3cccc(-c4nc[nH]n4)c3)n2)cn1` [Example 186, 1-(1-Methyl-1H-pyrazol-4-yl)-3-[3-(1H-1,2,4-triazol-3-yl)benzyl]pyridazin-4(1H)-one hydrochloride] and `CCOc1cnc(-c2cccc(Cc3nn(-c4cnn(C)c4)ccc3=O)c2)nc1CC` [Example 178, 3-[3-(5-ethoxy-4-ethylpyrimidin-2-yl)benzyl]-1-(1-methyl-1H-pyrazol-4-yl)pyridazin-4(1H)-one] cannot be ordered by IC50: under 100 nM for the first, under 100 nM for the second.

`Cn1cc(-n2ccc(=O)c(Cc3cccc(-c4ncc(-c5cnoc5)cn4)c3)n2)cn1` [Example 423, 3-[3-(5-isoxazol-4-ylpyrimidin-2-yl)benzyl]-1-(1-methyl-1H-pyrazol-4-yl)pyridazin-4(1H)-one] and `CCCCc1cnc(-c2cccc(Cc3nn(-c4cnn(C)c4)ccc3=O)c2)nc1` [Example 392, 3-[3-(5-butylpyrimidin-2-yl)benzyl]-1-(1-methyl-1H-pyrazol-4-yl)pyridazin-4(1H)-one] cannot be ordered by IC50: under 100 nM for the first, under 100 nM for the second.

`CN(C)C1CCN(c2cnc(-c3cccc(Cc4nn(-c5cnn(C)c5)ccc4=O)c3)nc2)CC1` [Example 444, 3-(3-{5-[4-(dimethylamino)piperidin-1-yl]pyrimidin-2-yl}benzyl)-1-(1-methyl-1H-pyrazol-4-yl)pyridazin-4(1H)-one] and `Cn1cc(-n2ccc(=O)c(Cc3cccc(-c4ncc(O[C@H]5CC[C@](C)(O)CC5)cn4)c3)n2)cn1` [Example 122, 3-(3-{5-[(trans-4-hydroxy-4-methylcyclohexyl)oxy]pyrimidin-2-yl}benzyl)-1-(1-methyl-1H-pyrazol-4-yl)pyridazin-4(1H)-one] cannot be ordered by IC50: under 100 nM for the first, under 100 nM for the second.

`C[C@H](O)[C@@H](C)Oc1cnc(-c2cccc(Cc3nn(-c4cnn(C)c4)ccc3=O)c2)nc1` (single isomer, unassigned) [Example 376] and `CC(C)CNC(=O)c1cnc(-c2cccc(Cc3nn(-c4cnn(C)c4)ccc3=O)c2)nc1` [Example 480, N-(2-methylpropyl)-2-(3-{[1-(1-methyl-1H-pyrazol-4-yl)-4-oxo-1,4-dihydro-pyridazin-3-yl]methyl}phenyl)pyrimidine-5-carboxamide] cannot be ordered by IC50: under 100 nM for the first, under 100 nM for the second.

`Cn1cc(-n2ccc(=O)c(Cc3cccc(NC(=O)OCCC4CCOCC4)c3)n2)cn1` [Example 565, 2-(tetrahydro-2H-pyran-4-yl)ethyl (3-{[1-(1-methyl-1H-pyrazol-4-yl)-4-oxo-1,4-dihydropyridazin-3-yl]methyl}phenyl)carbamate] and `Cn1cc(-n2ccc(=O)c(Cc3cccc(NC(=O)OCCCN4CCS(=O)(=O)CC4)c3)n2)cn1` [Example 566, 3-(1,1-dioxidothio-morpholin-4-yl)propyl (3-{[1-(1-methyl-1H-pyrazol-4-yl)-4-oxo-1,4-dihydropyridazin-3-yl]methyl}phenyl)carbamate] cannot be ordered by IC50: under 100 nM for the first, under 100 nM for the second.

`CCn1cc(-n2ccc(=O)c(C(C)c3cccc(-c4ncc(OCCOC)cn4)c3)n2)cn1` (single isomer, unassigned) [Example 248, 1-(1-ethyl-1H-pyrazol-4-yl)-3-((1R or S)-1-{3-[5-(2-methoxyethoxy)pyrimidin-2-yl]phenyl}ethyl)pyridazin-4(1H)-one] and `CCn1cc(-n2ccc(=O)c(C(C)c3cccc(-c4ncc(OCCn5cccn5)cn4)c3)n2)cn1` (single isomer, unassigned) [Example 303, 1-(1-ethyl-1H-pyrazol-4-yl)-3-[(1R or S)-1-(3-{5-[2-(1H-pyrazol-1-yl)ethoxy]pyrimidin-2-yl}phenyl)ethyl]pyridazin-4(1H)-one] cannot be ordered by IC50: under 100 nM for the first, under 100 nM for the second.

First: CCCn1cnc(-c2cccc(C(C)c3nn(-c4cnn(C)c4)ccc3=O)c2)n1 (single isomer, unassigned) [Example 684, 1-(1-methyl-1H-pyrazol-4-yl)-3-{(1S or R)-1-[3-(1-propyl-1H-1,2,4-triazol-3-yl)phenyl]ethyl} pyridazin-4(1H)-one]
Second: CC(c1cccc(-c2ncc(-c3cnn(C)c3)cn2)c1)c1nn(-c2cnn(C)c2)ccc1=O (single isomer, unassigned) [Example 233, 1-(1-methyl-1H-pyrazol-4-yl)-3-[(1R or S)-1-{3-[5-(1-methyl-1H-pyrazol-4-yl)pyrimidin-2-yl]phenyl}ethyl]pyridazin-4(1H)-one]
The IC50 of the first is higher: 1000 to 3000 nM for the first, under 100 nM for the second.

Compared with `Cn1cc(-n2ccc(=O)c(Cc3cccc(NC(=O)OCC4CC(C)(C)OC(C)(C)C4)c3)n2)cn1` [Example 609, (2,2,6,6-tetramethyltetra-hydro-2H-pyran-4-yl)methyl (3-{[1-(1-methyl-1H-pyrazol-4-yl)-4-oxo-1,4-dihydropyridazin-3-yl]methyl}phenyl)carbamate], `CN(C)C(=O)CCn1cnc(-c2cccc(Cc3nn(-c4cnn(C)c4)ccc3=O)c2)n1` [Example 710, N,N-dimethyl-3-[3-(3-{[1-(1-methyl-1H-pyrazol-4-yl)-4-oxo-1,4-dihydropyridazin-3-yl]methyl}phenyl)-1H-1,2,4-triazol-1-yl]propanamide] is higher in IC50: under 100 nM for the first, 100 to 1000 nM for the second. The first is the more potent here.

First: Cn1cc(-n2ccc(=O)c(Cc3cccc(-c4ncc(OCc5cccnc5)cn4)c3)n2)cn1 [Example 355, 1-(1-methyl-1H-pyrazol-4-yl)-3-{3-[5-(pyridin-3-ylmethoxy)pyrimidin-2-yl]benzyl}pyridazin-4(1H)-one]
Second: CCOc1cnc2ccc(Cc3nn(-c4cnn(CC)c4)ccc3=O)cc2c1 [Example 160, 3-[(3-ethoxyquinolin-6-yl)methyl]-1-(1-ethyl-1H-pyrazol-4-yl)pyridazin-4(1H)-one]
The IC50 of the first is lower: under 100 nM for the first, 100 to 1000 nM for the second.
